Legend:
Type in all cases: cell-based, human
CFC-embryonic body = assay: Embryonic body shape under phase contrast microscope; conditions: inhibitor present during CFC-embryonic body differentiation (LDN193189 100 nM, 4 days); compared with untreated CFC-embryonic body; FIG. 8
Procedure: The CFC-iPS fragments were distributed in the ultra-low attachment dish, followed by re-suspension in 5 ml of the embryonic body differentiation medium, which was DMED/F12 supplemented with 10% serum replacement (SR). After 4 days of suspension culture, the differentiation of a CFC-iPS-derived embryonic body (CFC-embryonic body) was induced. On day 2 and day 4 from the inducement, the CFC-embryonic body was obtained and the cell morphology was observed under phase contrast microscope. WT-iPS was cultured as the normal control by the same manner as described above, so that the differentiation of a WT-iPS-derived embryonic body (WT-embryonic body) was induced. […] 4 days after the inducement started, the CFC-embryonic body was obtained and observed under phase contrast microscope to investigate the embryonic body shape. As for the normal control, WT-iPS was cultured by the same manner as described above to induce the differentiation of a WT-iPS derived embryonic body (WT-embryonic body).

p-SMAD1 = assay: Western blotting of p-SMAD1 in CFC-embryonic body differentiated with inhibitor; conditions: 5 μM U0126, 100 nM LDN193189 during embryonic body differentiation; compared with untreated CFC-embryonic body; FIG. 7
Procedure: (§1) Particularly, the colony of CFC-iPS induced by the same manner as described in Example <2-1> was cut into 4 pieces by using […] tissue chopper. The CFC-iPS fragments were distributed in the ultra-low attachment dish, followed by re-suspension in 5 ml of the embryonic body differentiation medium, which was DMED/F12 supplemented with 10% serum replacement (SR). After 4 days of suspension culture, the differentiation of a CFC-iPS-derived embryonic body (CFC-embryonic body) was induced. On day 2 and day 4 from the inducement, the CFC-embryonic body was obtained and the cell morphology was observed under phase contrast microscope. WT-iPS was cultured as the normal control by the same manner as described above, so that the differentiation of a WT-iPS-derived embryonic body (WT-embryonic body) was induced. […] The concentration of the protein was measured by brad-ford assay. […] The expression levels of SMAD1, p-SMAD1, ERK1, p-ERK1, ERK2, and p-ERK2 were quantified by using Image J, the program for the measurement of the pixel intensity, by which the band intensity turned into numerical value. The relative values of p-SMAD1/SMAD1, p-ERK1/ERK1, and p-ERK2/ERK2 were calculated and then the phosphorylation levels of SMAD1, ERK1, and ERK2 were compared with those of the normal control. […]

p-ERK = assay: Western blotting of p-ERK in CFC-embryonic body differentiated with inhibitor; conditions: 5 μM U0126, 100 nM LDN193189 during embryonic body differentiation; compared with untreated CFC-embryonic body; FIG. 7
Procedure: as §1

N#CC(=C(N)Sc1ccccc1N)C(C#N)=C(N)Sc1ccccc1N [U0126, 1,4-diamino-2,3-dicyano-1,4-bis(2-aminophenylthio)butadiene]
embryonic body shape (CFC-embryonic body): normal unbroken embryonic body shape
level of p-SMAD1 in CFC-embryonic body (p-SMAD1): reduced
level of p-ERK in CFC-embryonic body (p-ERK): down regulation

Source: US10174288B2, “Induced pluripotent stem cell model for cardiofaciocutaneous syndrome and uses thereof” (Korea Advanced Institute of Science and Technology, priority 2013, dated 2019)
